This is an account of results in patent US4985547A, “External skin care preparation” (Kao Corporation, priority 1987, dated 1991).

Assay [1] relates to horny layer. As to the kind of experiment: Skin conductance (water content of horny layer) after two-week coating on cheeks. In kind it is in vivo, women. Also noted: key: conductance meter reading; ≤5 = severe roughness, ≥20 = no roughness. The note with it: Invention Product 1: vaseline and compound 3:1 by weight; two weeks; 20° C., 40% humidity; 5 and smaller = severe roughness, 20 or greater = no substantial roughness. The source says: (§1) Compounds Ia1 -Ia18 prepared respectively in Referential Examples 1, 2 and 3 and following the procedures of these referential examples, compounds Ib1 -Ib5 prepared respectively in Referential Example 4 and following the procedure of the referential example, compounds Id1 -Id5 prepared respectively in Referential Example 5 and following the procedure of the referential example, compounds Ie1 -Ie4 prepared respectively in Referential Examples 6-9, and conventional compounds Ic1 -Ic13, Ie5 -Ie14 and II1 -II12 were used separately. Mixtures (Invention Products 1), each of which had been formulated by mixing vaseline and the compound (I or II) at a weight ratio of 3:1, and vaseline (Comparative Product 1) were evaluated in skin conductance and skin roughness by the following methods.
(§2) Chosen as volunteers in winter were 10 women of 20-50 years of old who had skin roughness on their both cheeks. Different external skin care preparations were coated separately on the left and right cheeks of each volunteer for two weeks. On the following day of the completion of the two-week coating test, tests were conducted with respect to the following properties.
After washing the face with warm water of 37° C., each volunteer was allowed to rest for 20 minutes in a room which was air-conditioned at 20° C. and 40% humidity. The water content of their horny layer was measured by a skin conductance meter (manufactured by IBS Company). A smaller conductance value indicates greater skin roughness. Conductance values of 5 and smaller indicate severe skin roughness. On the contrary, no substantial skin roughness is observed where this value is 20 or greater.

The test system of assay [2] is skin roughness. Kind of assay: Score of skin roughness, visual ranking after two-week coating on cheeks. The format is in vivo, women. To be noted: average, 4 = severe.
Text: as §1, §2
Skin roughness was observed visually and ranked in accordance with the following standard. Each score was indicated by an average value.
Score Ranking of skin roughness
0 No skin roughness was observed.
1 Slight skin roughness was observed.
2 Skin roughness was observed.
3 Rather severe skin roughness was observed.
4 Severe skin roughness was observed.
Using separately the compounds used in Example 1, external skin care preparations (emulsified cosmetic preparations) of their corresponding compositions shown below in Table 2 were formulated. Their effects for the improvement of skin roughness were evaluated in the same manner as in Example 1.

Setting [3] is: Invention product 2: emulsified cosmetic, compound 1.0 wt. %, glyceryl ether 2.0 wt. %, 0 = none.
The mark [4] stands for this setting: Invention product 3: emulsified cosmetic, compound 1.0 wt. %, arginine monocetylphosphate 2.0 wt. %, 0 = none.
Setting [5] is: Invention product 4: emulsified cosmetic, compound 1.0 wt. %, polyoxyethylene (20) sorbitan stearate 1.0 and sorbitan monostearate 1.0 wt. %, 0 = none.

In assay [1], `CCCCCCCCCCC(O)CN(CCO)C(=O)CCCCCCCCC` (stereo not shown) [Compound Id3] showed a Skin conductance of 13. Further, the “Score of skin roughness” value in assay [2] (setting [3]) is 0.5; in assay [2] (setting [4]), 0.8; in assay [2] (setting [5]), 1.1.
Turning to `CCCCCCCCCCCCCCCCCC(=O)N(CCO)CC(O)CCCCCCCCCCCCCC` (stereo not shown) [Compound Id1, N-(2-hydroxyethyl)-N-2-hydroxyhexa-decyloctadecanamide], the Skin conductance in assay [1] is recorded as 21. Further, the “Score of skin roughness” value in assay [2] (Invention Product 1: vaseline and compound 3:1 by weight, two weeks, 0 = no roughness) is 1.0; in assay [2] (setting [3]), 0.2; in assay [2] (setting [4]) it was 0.4; in assay [2] (setting [5]), 0.7.
On to `CCCCCCCCCCCCCCCCOCC(O)CN(CCO[C@@H]1O[C@H](CO)[C@@H](O)[C@H](O)[C@H]1NC(C)=O)C(=O)CCCCCCCCCCCCCCC` (stereo partly shown) [Compound Ie3], for which the Skin conductance in assay [1] worked out at 31. The figures for the “Score of skin roughness” value in assay [2] (setting [3]), in assay [2] (setting [4]) and in assay [2] (setting [5]) were 0.3, 0.4 and 0.7, respectively.
The matching figures for `CCCCCCCCCCCCCCCCCCOCC(O)CN(C(=O)CCCCCCCCCCCCCCCCC)C(C)(C)CO` (stereo not shown) [Compound Ia15]: 13, 0.5, 0.7 and 1.0.
The matching figures for `CCCCCCCCCCCCCCCCCC(=O)N(CC(=O)O)CC(O)COCCCCCCCCCCCCCC` (stereo not shown) [Compound Ic2]: 15, 0.6, 0.8 and 1.1.
Regarding `CCCCCCCCCCCCCCCCOCC(O)CN(CCCO)C(=O)CCCCCCCCCCCCCCC` (stereo not shown) [Compound Ia1, N-(3-hexadecyloxy-2-hydroxypropyl)-N-3-hydroxypropylhexadecanamide], the Skin conductance in assay [1] is given as 20. The “Score of skin roughness” value in assay [2] (setting [3]) is recorded as 0.2; in assay [2] (setting [4]), 0.4; in assay [2] (setting [5]), 0.8.
The matching figures for `CCCCCCCCCCOCC(O)CN(CCOCCO)C(=O)CCCCCCCCC` (stereo not shown) [Compound Ib2]: 10, 0.8, 1.0 and 1.2.
On to `CCCCCCCCCCCCCCCCCCOCC(O)CN(CC(O)COCCCCCCCCCC)C(C)=O` (stereo not shown) [Compound II11], for which the Skin conductance in assay [1] is given as 12. Besides, the “Score of skin roughness” value in assay [2] (setting [3]) is reported as 0.4; in assay [2] (setting [4]), 0.8; in assay [2] (setting [5]) it was 1.2.
Molecule `CCCCCCCCCCCCCCCCCCOCC(O)CN(CCCCCCO)C(=O)CCCCCCCCCCCCCCCCC` (stereo not shown) [Compound Ia9] gave a Skin conductance in assay [1] of 20. Moreover, the “Score of skin roughness” value was determined as 0.2 in assay [2] (setting [3]), 0.4 in assay [2] (setting [4]) and 0.9 in assay [2] (setting [5]).
The matching figures for `CCCCCCCCCCCCCCCCCC(=O)N(CCCCCCO)CC(O)COCCCCCCCCCC` (stereo not shown) [Compound Ia7]: 11, 0.6, 0.9 and 1.2.
The matching figures for `CCCCCCCCCCCCCCCCCC(=O)N(CC(=O)O)CC(O)CCCCCCCCCCCCCCCC` (stereo not shown) [Compound Ic3]: 11, 1.0, 1.3 and 1.6.
Take `CCCCCCCCCCCCCCCCOCC(CN(CCO)C(=O)CCCCCCCCCCCCCCC)OP(=O)([O-])OCC[N+](C)(C)C` (stereo not shown) [Compound Ie13]: the Skin conductance in assay [1] is on record as 11. Also, the “Score of skin roughness” value in assay [2] (setting [3]) is recorded as 0.9; in assay [2] (setting [4]), 1.1; in assay [2] (setting [5]) it was 1.5.
The matching figures for `CCCCCCCCCCCCCCCCOCC(O)CN(CCOCCO)C(=O)CCCCCCCCCCCCCCC` (stereo not shown) [Compound Ib1, N-(3-hexadecyloxy-2-hydroxypropyl)-N-2-hydroxyethoxyethylhexadecanamide]: 20, 0.1, 0.2 and 0.7.
The matching figures for `CCCCCCCCCCCCCCCCCCOCC(O)CN(CC(C)O)C(=O)CCCCCCCCCCCCCCCCC` (stereo not shown) [Compound Ia13]: 13, 0.5, 0.7 and 1.1.
In turn, `CCCCCCCCCCCCCCCCOCC(O)CN(CCO)CC(O)COCCCCCCCCCCCCCCCC` (stereo not shown) [Compound II1] yielded a Skin conductance in assay [1] of 18. Besides, the entries for the “Score of skin roughness” value in assay [2] (setting [3]), in assay [2] (setting [4]) and in assay [2] (setting [5]) were 0.1, 0.3 and 0.8, respectively.
`CCCCCCCC/C=C\CCCCCCCC(=O)N(CCO)CC(O)CCCCCCCCCCCCCCCC` (stereo not shown) [Compound Id5] came in with a Skin conductance in assay [1] of 25. Further, the entries for the “Score of skin roughness” value in assay [2] (setting [3]), in assay [2] (setting [4]) and in assay [2] (setting [5]) were 0.1, 0.3 and 0.6, respectively.
The matching figures for `CCCCCCCCCCCCCCCCCCOCC(O)CN(C(=O)CCCCCCCCCCCCCCCCC)C(C)(CO)CO` (stereo not shown) [Compound Ia14]: 23, 0.1, 0.3 and 0.6.
Molecule `CCCCCCCCCCCCCCCCCC(=O)N(CCCO)CC(O)COCCCCCCCCCC` (stereo not shown) [Compound Ia4] showed a Skin conductance in assay [1] of 13. For the same molecule, the “Score of skin roughness” value amounted to 0.5 in assay [2] (setting [3]), 0.7 in assay [2] (setting [4]) and 1.1 in assay [2] (setting [5]).
`CCCCCCCCCCCCCCCCOCC(O)CN(CCCCCCO)C(=O)CCCCCCCCCCCCCCC` (stereo not shown) [Compound Ia2, N-(3-hexadecylocy-2-hydroxypropyl)-N-6-hydroxyhexylhexadecanamide] came in with a Skin conductance in assay [1] of 18. For the same molecule, the “Score of skin roughness” value in assay [2] (setting [3]) is listed as 0.3; in assay [2] (setting [4]) it was 0.5; in assay [2] (setting [5]), 1.0.
In assay [1], `CCCCCCCCCCCCCCCCCCOCC(O)CN(CC(=O)O)CC(O)COCCCCCCCCCC` (stereo not shown) [Compound II7] returned a Skin conductance of 10. Moreover, the “Score of skin roughness” value is listed as 0.5 in assay [2] (setting [3]), 0.8 in assay [2] (setting [4]) and 1.1 in assay [2] (setting [5]).
The matching figures for `CCCCCCCCCCCCCCCCCCOCC(O)CN(CCOCCO)C(=O)CCCCCCCCC` (stereo not shown) [Compound Ib3]: 14, 0.6, 0.9 and 1.1.
The matching figures for `CCCCCCCCCCCCCCCCOCC(O)CN(C(=O)CCCCCCCCCCCCCCC)C(C(=O)O)C(C)C` (stereo not shown) [Compound Ic7]: 15, 0.6, 0.8 and 1.1.
As to `CCCCCCCC/C=C\CCCCCCCCOCC(O)CN(CCOP(=O)([O-])OCC[N+](C)(C)C)C(=O)CCCCCCCCCCCCCCCCC` (stereo not shown) [Compound Ie12], in assay [1], the Skin conductance is recorded as 13. In addition, the “Score of skin roughness” value in assay [2] (setting [3]) is given as 0.9; in assay [2] (setting [4]), 0.9; in assay [2] (setting [5]), 1.5.
For the molecule `CCCCCCCCCCCCCCOCC(O)CN(C(=O)CCCCCCCCC)C(CO)(CO)CO` (stereo not shown) [Compound Ia17], the Skin conductance in assay [1] is given as 20. Besides, the “Score of skin roughness” value is recorded as 0.2 in assay [2] (setting [3]), 0.4 in assay [2] (setting [4]) and 0.7 in assay [2] (setting [5]).
The matching figures for `CCCCCCCCCCCCCCCCCCOCC(O)CN(CCOCCO)C(=O)CCCCCCCCCCCCCCCCC` (stereo not shown) [Compound Ib5]: 23, 0.2, 0.4 and 0.8.
The matching figures for `CCCCCCCCCCCCCCCCCCOCC(O)CN(CCCCCCO)C(=O)CCCCCCCCCC` (stereo not shown) [Compound Ia8]: 13, 0.5, 0.7 and 1.1.
The matching figures for `CCCCCCCCCCCCCCCCCC(=O)N(CC(=O)O)CC(O)COCCCCCCCCCCCCCC` (stereo not shown) [Compound Ic1]: 14, 0.7, 0.9 and 1.2.
